Measurements taken from PubChem BioAssay AID652043 (Broad Institute, 2013).
Activity calls are given as the source filed them.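 How the source made its calls: active means fitted curve drops below -35% activity change at a concentration within twice the highest valid tested dose; inactive means activity opposite to the expected direction, or the rest.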

Assays:
[1] = TNFa-induced canonical NF-kB eGFP reporter inhibition, dose response, selectivity assay for LMP1 NF-kB inhibitor project, cell-based, flow cytometry, eGFP/dsRED, dry powder (AID 652043); conditions: HEK293 TNFa-induced NF-kB eGFP reporter, flow cytometry, 16 h
[2] = system: HEK293 TNFa-induced NF-kB eGFP reporter, flow cytometry, 16 h; test: as above

Row | SMILES | activity change, negative = inhibition ([1]; at 19.5 µM (top of the series)) | AC35 [2] [µM] | further results
1 | CN(C)c1ccc2c(c1)[C@@H]1C[C@@H](CC(=O)N3CCc4ccccc4C3)O[C@@H](CO)[C@@H]1O2 | -1.46% (inactive) | – | –
2 | CS(=O)(=O)Nc1ccc2c(c1)[C@@H]1C[C@@H](CC(=O)NCc3ccc(Oc4ccccc4)cc3)O[C@@H](CO)[C@@H]1O2 | – | 0.623 | –
3 | COc1ccccc1CNC(=O)C[C@@H]1C[C@H]2c3cc(N(C)C)ccc3O[C@H]2[C@H](CO)O1 | -11.3% (inactive) | – | –
4 | COCCNC(=O)C[C@@H]1C[C@H]2c3cc(N(C)C)ccc3O[C@H]2[C@H](CO)O1 | -5.65% (inactive) | – | –
5 | CCCNC(=O)C[C@H]1CC[C@@H]2[C@H](COc3ccc(NC(=O)c4cc(C)on4)cc3C(=O)N2C)O1 | -2.12% (inactive) | – | –
6 | CN(C)c1ccc2c(c1)[C@@H]1C[C@@H](CC(=O)NCc3cccc(F)c3)O[C@@H](CO)[C@@H]1O2 | -9.54% (inactive) | – | –
7 | CN(C)c1ccc2c(c1)[C@@H]1C[C@@H](CC(=O)NCc3ccc4c(c3)OCO4)O[C@@H](CO)[C@@H]1O2 | -10.4% (inactive) | – | –
8 | CN(C)c1ccc2c(c1)[C@@H]1C[C@@H](CC(=O)NCCc3ccccc3)O[C@@H](CO)[C@@H]1O2 | -3.65% (inactive) | – | –
9 | Cc1cc(C(=O)Nc2ccc3c(c2)C(=O)N(C)[C@@H]2CC[C@H](CC(=O)N[C@@H](C)c4ccccc4)O[C@H]2CO3)no1 | – | – | activity change, negative = inhibition ([1]; at 21 µM (top of the series)): -5.47% (inactive)
10 | CN(C)c1ccc2c(c1)[C@@H]1C[C@@H](CC(=O)NCc3ccncc3)O[C@@H](CO)[C@@H]1O2 | 0.09% (inactive) | – | –
11 | CN(C)c1ccc2c(c1)[C@@H]1C[C@@H](CC(=O)NCC3CC3)O[C@@H](CO)[C@@H]1O2 | -0.472% (inactive) | – | –
12 | CN1C(=O)c2cc(NC(=O)Nc3ccccc3F)ccc2OC[C@@H]2O[C@@H](CC(=O)NCc3ccc(-c4ccccc4)cc3)CC[C@H]21 | – | 0.161 | –
13 | CN(C)c1ccc2c(c1)[C@@H]1C[C@@H](CC(=O)N3CCOCC3)O[C@@H](CO)[C@@H]1O2 | – | 1.95 | –
14 | CNC(=O)C[C@H]1CC[C@@H]2[C@H](COc3ccc(NC(=O)c4cc(C)on4)cc3C(=O)N2C)O1 | -1.72% (inactive) | – | –
15 | COCCNC(=O)C[C@H]1CC[C@@H]2[C@H](COc3ccc(NC(=O)c4cc(C)on4)cc3C(=O)N2C)O1 | -8.48% (inactive) | – | –
16 | O=C(C[C@@H]1C[C@H]2c3cc(NC(=O)Nc4ccccc4F)ccc3O[C@H]2[C@H](CO)O1)NCc1ccc(Oc2ccccc2)cc1 | – | 16.2 | –

Row | SMILES | activity change, negative = inhibition ([1]; at 19.5 µM (top of the series)) | AC35 [2] [µM] | further results
17 | CN(C)c1ccc2c(c1)[C@@H]1C[C@@H](CC(=O)NCc3ccccn3)O[C@@H](CO)[C@@H]1O2 | -11.4% (inactive) | – | –
18 | O=C(C[C@@H]1C[C@H]2c3cc(NS(=O)(=O)c4ccc(F)cc4)ccc3O[C@H]2[C@H](CO)O1)NCc1ccc(Oc2ccccc2)cc1 | -4.18% (inactive) | – | –
19 | COc1ccccc1[C@]1(C)ON(c2ccccc2C(F)(F)F)C1=O | – | 10.6 | –
20 | CCNC(=O)C[C@H]1CC[C@@H]2[C@H](COc3ccc(NC(=O)c4cc(C)on4)cc3C(=O)N2C)O1 | -0.229% (inactive) | – | –
21 | Cc1cc(C(=O)Nc2ccc3c(c2)C(=O)N(C)[C@@H]2CC[C@H](CC(=O)NC4CCCC4)O[C@H]2CO3)no1 | – | 10 | –
22 | O=C(Nc1ccc(C(F)(F)F)cc1)Nc1ccc2c(c1)[C@H]1C[C@@H](CC(=O)N3CCc4ccccc4C3)O[C@@H](CO)[C@H]1O2 | – | 15.8 | –
23 | Cc1cc(C(=O)Nc2ccc3c(c2)C(=O)N(C)[C@@H]2CC[C@H](CC(=O)NCc4ccc(-c5ccccc5)cc4)O[C@@H]2CO3)no1 | – | – | activity change, negative = inhibition ([1]; at 21 µM (top of the series)): -0.92% (inactive)
24 | Cc1cc(C(=O)Nc2ccc3c(c2)C(=O)N(C)[C@@H]2CC[C@H](CC(=O)NCc4ccc(-c5ccccc5)cc4)O[C@H]2CO3)no1 | – | – | activity change, negative = inhibition ([1]; at 18 µM (top of the series)): -3.35% (inactive)
25 | CN(C)c1ccc2c(c1)[C@@H]1C[C@@H](CC(=O)NCc3cc(F)ccc3F)O[C@@H](CO)[C@@H]1O2 | – | 1.41 | –
26 | CN(C)c1ccc2c(c1)[C@@H]1C[C@@H](CC(=O)NC3CCCCC3)O[C@@H](CO)[C@@H]1O2 | -7.37% (inactive) | – | –
27 | O=C(C[C@@H]1C[C@H]2c3cc(NC(=O)C4CCOCC4)ccc3O[C@H]2[C@H](CO)O1)NCc1ccc(Oc2ccccc2)cc1 | – | 16.4 | –
28 | CN1C(=O)c2cc(NS(C)(=O)=O)ccc2OC[C@@H]2O[C@@H](CC(=O)NCc3ccc(-c4ccccc4)cc3)CC[C@H]21 | -0.9% (inactive) | – | –
29 | CN(C)c1ccc2c(c1)[C@@H]1C[C@@H](CC(=O)NCc3ccc(Oc4ccccc4)cc3)O[C@@H](CO)[C@@H]1O2 | -5.55% (inactive) | – | –
30 | Nc1ccn([C@@H]2O[C@H](CO)[C@@H](O)C2O)c(=O)n1 (some centres not stated) | – | 7.24 | –
31 | O=C(C[C@@H]1C[C@H]2c3cc(NC(=O)NC4CCCC4)ccc3O[C@H]2[C@H](CO)O1)NCc1ccc(Oc2ccccc2)cc1 | – | 8.04 | –
32 | Cc1cc(C(=O)Nc2ccc3c(c2)C(=O)N(C)[C@@H]2CC[C@H](CC(=O)N[C@H](C)c4ccccc4)O[C@H]2CO3)no1 | – | 18.1 | –
